# Results published in PMC7731115, “Cytotoxic, Apoptosis-Inducing Activities, and Molecular Docking of a New Sterol from Bamboo Shoot Skin Phyllostachys heterocycla var. pubescens” (Molecules, 2020).
# Values joined by “and” are separate entries in the source; they are usually repeats but may differ in a detail not shown here. Identical values can stand only once. Like-named read-outs stand apart in the source and are kept apart here.
# Legend:
# HepG2 = test: MTT cytotoxic assay, HepG2; assay type: cell-based; conditions: Homo sapiens, read-out: IC50 ± SD HepG2
# Procedure: (§1) Crude extracts, in addition to six sterol compounds, were screened for their cytotoxic activities against four cancerous cell lines: HepG2, Hela, A549, and MCF-7 and a noncancerous breast (MCF-10A) cell line to test their safety using the MTT assay (Table 2). […] After fractionation and isolation of the pure compounds, six compounds were tested for their cytotoxicity. […] Additionally, it was safe against the normal cells, with IC50 ≥ 50.
# (§2) Crude extract, together with six of the identified sterols, were screened for their cytotoxic activities against liver HepG2, breast MCF-7, and normal cells (MCF-10A), as well. According to the standard cell culture work, each cell line was cultured in a proper complete medium. The treatment of cells was performed with the crude extract and then, with the identified compounds for a 48-h incubation, and Fluorouracil (5-FU) was used as the standard. Percent of cell viability was calculated by the following formula: % cell viability = (Mean absorbance of tested compound)/(Mean absorbance in control) × 100. Then, IC50 in µM was calculated using GraphPad Prism 7.
# MCF-7 = test: MTT cytotoxic assay, MCF-7; assay type: cell-based, human
# Procedure: as §1, §2
# Normal Cells MCF-10A = test: MTT cytotoxic assay, normal cells MCF-10A; assay type: cell-based; conditions: Homo sapiens, pure compounds, 48-h incubation, n = 3, read-out: IC50 ± SD Normal Cells MCF-10A
# Procedure: as §1, §2
# MCF-7 cancer cells [1] = test: Annexin V/PI flow cytometric apoptosis/necrosis assessment; assay type: cell-based, human; conditions: MCF-7, treated at IC50 = 25.92 μM, 48 h
# Text: (§3) Moreover, MCF-7 cancer cells after compound 1 treatment were subjected to DNA flow cytometry to analyse the cell cycle kinetics to determine the compound’s phase interference with the cell cycle. The study of the cell cycle is a crucial test showing the cell accumulation percentage in each growth phase with cytotoxic substances after treatment. […] Consequently, compound 1 induced pre-G1 and G2/M-phase cell cycle arrest and blocked the progression of MCF-7 cancer cells that deteriorated the genetic material.
# (§4) Cell cycle analysis, as well as apoptotic assays, were performed in detail according to the previously described methods. Full methodologies of flow cytometric assays were provided in the Supplementary File.
# MCF-7 cancer cells [2] = test: DNA content flow cytometry cell cycle analysis; assay type: cell-based, human; conditions: MCF-7, treated at IC50 = 25.92 μM, 48 h
# Text: as §3, §4
# P53 gene = test: RT-PCR mRNA expression in MCF-7 cells, P53; assay type: cell-based, human; conditions: MCF-7, treated at IC50 = 25.92 μM, 48 h
# Procedure: (§5) The results are in accordance with the proposed apoptotic pathway for anticancer activity.
# (§6) At the end of treatments, cells were collected, and total RNA was extracted using a RNeasy® Mini Kit (Qiagen, Hilden, Germany) according to the manufacturer’s instructions. cDNA synthesis was performed with 500 ng of RNA using the i-Script cDNA synthesis kit (Bio-Rad, Hercules, CA, USA) following the manufacturer’s instructions. Real-time (RT)-PCR reactions consisted of 25-µL Fluocycle®II SYBR® (Euroclone, Milan, Italy), 1.5 µL of both 10-µM forward and reverse primers, 3-µL cDNA, and 19 µL of H2O. All reactions were performed for 35 cycles using this temperature profile: 95 °C for 5 m (initial denaturation); 95 °C for […] (Denaturation), 55 °C for […] (Annealing), and 72 °C for […] (Extension). Then, The cycle threshold (Ct) values were collected and the relative folds of changes between all the samples. Primer used were listed in the Supplementary Files.
# BAX = test: RT-PCR mRNA expression in MCF-7 cells, BAX; assay type: cell-based, human; conditions: MCF-7, treated at IC50 = 25.92 μM, 48 h
# Procedure: as §5, §6
# antiapoptotic Bcl-2 gene = test: RT-PCR mRNA expression in MCF-7 cells, Bcl-2; assay type: cell-based, human; conditions: MCF-7, treated at IC50 = 25.92 μM, 48 h
# Procedure: as §5, §6
# caspase 3 = test: RT-PCR mRNA expression in MCF-7 cells, caspase 3; assay type: cell-based, human; conditions: MCF-7, treated at IC50 = 25.92 μM, 48 h
# Procedure: as §5, §6
# caspase 8 = test: RT-PCR mRNA expression in MCF-7 cells, caspase 8; assay type: cell-based, human; conditions: MCF-7, treated at IC50 = 25.92 μM, 48 h
# Procedure: as §5, §6
# caspase 9 = test: RT-PCR mRNA expression in MCF-7 cells, caspase 9; assay type: cell-based, human; conditions: MCF-7, treated at IC50 = 25.92 μM, 48 h
# Procedure: as §5, §6
# Hela = test: MTT cytotoxic assay, Hela; assay type: cell-based; conditions: Homo sapiens
# Procedure: as §1, §2
# A549 = test: MTT cytotoxic assay, A549; assay type: cell-based; conditions: Homo sapiens, read-out: IC50 ± SD A549
# Procedure: as §1, §2
# [3] = HepG2, pure compounds, MTT, 48-h incubation, n = 3
# [4] = Homo sapiens, MCF7, 48 h, pure compounds, MTT, 48-h incubation, n = 3, read-out: IC50 ± SD MCF-7
# [5] = pure compounds, MTT, 48-h incubation, n = 3, read-out: IC50 ± SD Hela
# [6] = A549, pure compounds, MTT, 48-h incubation, n = 3
compound,measurement,setting,value
"CCCCCC/C=C\C/C=C\CCCCCCC(=O)OC[C@H]1O[C@@H](O[C@H]2CCC3(C)C(=CCC4C3CCC3(C)C(C(C)CCC(CC)C(C)C)CCC43)C2)[C@H](O)[C@@H](O)[C@@H]1O (stereo partly drawn) [Compound 1, (6’-O-octadeca-8″,11″-dienoyl)-sitosterol-3-O-β-D-glucoside]",IC50,HepG2; [3],27.5 ± 1.04 µM
same,IC50,MCF-7; [4],25.8 µM
same,LogIC50 (Figure 4 curve fit),"MCF-7; MCF-7, nonlinear regression dose-inhibition curve fit",1.412
same,IC50,"MCF-7; pure compounds, MTT, 48-h incubation, n = 3, read-out: IC50 ± SD MCF-7",25.8 ± 1.04 µM
same,IC50,Normal Cells MCF-10A,≥ 50 µM
same,"apoptotic cell death, fold vs control",MCF-7 cancer cells [1],32.6 fold
same,"cell death via necrosis, fold vs control",MCF-7 cancer cells [1],10.8 fold
same,"apoptotic cell death, total apoptosis",MCF-7 cancer cells [1]; control 0.51%,16.63%
same,cell death via necrosis,MCF-7 cancer cells [1]; control 0.86%,9.31%
same,pre-G1 cell population,MCF-7 cancer cells [2]; control 1.37%,25.94%
same,G2/M cell population,MCF-7 cancer cells [2]; control 7.46%,26.74%
same,cell population in S,MCF-7 cancer cells [2]; control 34.26%,24.95%
same,"P53 gene mRNA level, fold change",P53 gene,≈ 3.55 fold and 3.55± 0.28 fold
same,"BAX mRNA level, fold change",BAX,3.77 fold and 3.77± 0.37 fold
same,"Bcl-2 mRNA level, fold change",antiapoptotic Bcl-2 gene,≈ 0.81 fold and 0.81± 0.05 fold
same,"caspase 3 mRNA level, fold change",caspase 3,≈ 5.01 fold and 5.01± 0.27 fold
same,"caspase 8 mRNA level, fold change",caspase 8,1.9 fold and 1.9± 0.13 fold
same,"caspase 9 mRNA level, fold change",caspase 9,5.44 fold and 5.44± 0.49 fold
"CC[C@H](CC[C@@H](C)[C@H]1CC[C@H]2[C@@H]3CCC4=CC(=O)CC[C@]4(C)[C@H]3CC[C@]12C)C(C)C [Compound 2, stigmast-4-en-3-one]",IC50,"Hela; 48 h, read-out: IC50 ± SD Hela",32.5 ± 0.89 µM
same,IC50,"A549; A549, 48 h",45.6 ± 0.75 µM
same,IC50,"MCF-7; Homo sapiens, MCF7, 48 h, read-out: IC50 ± SD MCF-7, pure compounds, MTT, 48-h incubation, n = 3",≥ 50 µM
same,IC50,Normal Cells MCF-10A,≥ 50 µM
"CCC(CC[C@@H](C)[C@H]1CC[C@H]2[C@@H]3CC(O)C4=CC(=O)CC[C@]4(C)[C@H]3CC[C@]12C)C(C)C (stereo partly drawn) [Compound 3, 6-β-hydroxy-24-ethyl-cholest-4-en-3-one]",IC50,Hela; [5],≥ 50 µM
same,IC50,A549; [6],49.9 ± 1.03 µM
same,IC50,MCF-7; [4],≥ 50 µM
same,IC50,Normal Cells MCF-10A,≥ 50 µM
"CC[C@H](CC[C@@H](C)[C@H]1CC[C@H]2[C@@H]3CC=C4C[C@@H](O)CC[C@]4(C)[C@H]3CC[C@]12C)C(C)C [Compound 5, β-sitosterol]",IC50,"HepG2; HepG2, 48 h",≥ 50 µM
same,IC50,"Hela; 48 h, read-out: IC50 ± SD Hela",42.3 ± 1.02 µM
same,IC50,"A549; A549, 48 h",≥ 50 µM
same,IC50,"MCF-7; Homo sapiens, MCF7, 48 h, read-out: IC50 ± SD MCF-7",≥ 50 µM
same,IC50,Normal Cells MCF-10A,≥ 50 µM
"O=c1[nH]cc(F)c(=O)[nH]1 [Compound 5-FU, 5-fluorouracil, reference compound]",IC50,HepG2; [3],15.8 ± 0.28 µM
same,IC50,Hela; [5],13 ± 0.65 µM
same,IC50,A549; [6],7.47 ± 0.43 µM
same,IC50,MCF-7; [4],27 ± 0.76 µM
same,IC50,Normal Cells MCF-10A,≥ 50 µM
"CCCCCCCCCCCCCCCC(=O)OCC1OC(OC2CCC3(C)C(=CCC4C3CCC3(C)C(C(C)CCC(CC)C(C)C)CCC43)C2)C(O)C(O)C1O [Compound 6, (6’-O-palmitoyl)-sitosterol-3-O-β-D-glucoside]",IC50,HepG2; [3],42.5 ± 1.71 µM
same,IC50,MCF-7; [4],≥ 50 µM
same,IC50,Normal Cells MCF-10A,≥ 50 µM
"CCC(CCC(C)C1CCC2C3CC=C4CC(OC5OC(CO)C(O)C(O)C5O)CCC4(C)C3CCC12C)C(C)C [Compound 7, β-sitosterol-3-O-β-D-glucoside]",IC50,HepG2; [3],≥ 50 µM
same,IC50,MCF-7; [4],38.1 ± 0.98 µM
same,IC50,Normal Cells MCF-10A,≥ 50 µM
